Earlier results, collected in patent publication US20080085301A1, “Method for transdermal administration of antimicrobial medications” (priority 2005, published 2008).

system: Streptococcus pneumoniae; settings: based on Streptococcus pneumoniae; in vitro

Row | SMILES | Approximate MIC [µg/mL]
1 | N[C@@H]1CON=C1O [Cycloserine] | ~32
2 | CN[C@H](CC(C)C)C(=O)N[C@H]1C(=O)N[C@@H](CC(N)=O)C(=O)N[C@H]2C(=O)N[C@H]3C(=O)N[C@H](C(=O)N[C@H](C(=O)O)c4cc(O)cc(O)c4-c4cc3ccc4O)[C@H](O)c3ccc(c(Cl)c3)Oc3cc2cc(c3O[C@@H]2O[C@H](CO)[C@@H](O)[C@H](O)[C@H]2O[C@H]2C[C@](C)(N)[C@H](O)[C@H](C)O2)Oc2ccc(cc2Cl)[C@H]1O [Vancomycin] | ~16
3 | CO[C@H]1/C=C/O[C@@]2(C)Oc3c(C)c(O)c4c(O)c(c(/C=N/N5CCN(C)CC5)c(O)c4c3C2=O)NC(=O)/C(C)=C\C=C\[C@H](C)[C@H](O)[C@@H](C)[C@@H](O)[C@@H](C)[C@H](OC(C)=O)[C@@H]1C [Rifampin] | ~0.5
4 | C[C@@H](O)[C@H]1C(=O)N2C(C(=O)O)=C(S[C@@H]3CN[C@H](C(=O)N(C)C)C3)[C@H](C)[C@H]12 [Meropenem] | ~1
5 | O=C(N[C@H](CO)[C@H](O)c1ccc([N+](=O)[O-])cc1)C(Cl)Cl [Chloramphenicol] | ~4
6 | [H]/N=C(/N)N[C@H]1[C@H](O)[C@@H](O)[C@H](O[C@@H]2O[C@@H](C)[C@](O)(C=O)[C@H]2O[C@@H]2O[C@@H](CO)[C@H](O)[C@@H](O)[C@@H]2NC)[C@@H](N/C(N)=N\[H])[C@@H]1O [Streptomycin] | ~2
7 | CC(=O)NC[C@H]1CN(c2ccc(N3CCOCC3)c(F)c2)C(=O)O1 [Linezolid] | ~2
8 | CCCCCCCCCC(=O)N[C@@H](Cc1c[nH]c2ccccc12)C(=O)N[C@H](CC(N)=O)C(=O)N[C@@H](CC(=O)O)C(=O)N[C@@H]1C(=O)NCC(=O)N[C@@H](CCCN)C(=O)N[C@@H](CC(=O)O)C(=O)N[C@H](C)C(=O)N[C@@H](CC(=O)O)C(=O)NCC(=O)N[C@H](CO)C(=O)N[C@@H]([C@H](C)CC(=O)O)C(=O)N[C@@H](CC(=O)c2ccccc2N)C(=O)O[C@@H]1C [Daptomycin] | ~0.5
